# From patent US20200230068A1, “COMPOSITIONS AND METHODS OF DELIVERY OF PHARMACOLOGICAL AGENTS” (NAL PHARMACEUTICAL GROUP LIMITED, priority 2017, published 2020)
# Assays:
# in vitro = details: Chinese hamster; for cytotoxicity at 20 minutes, 0.01 µM: Cytotoxicity %
# Protocol: Conjugated Complex has been tested in CHO cells expressing human recombinant sst2a. Cell viability was measured using the CellTiter-Glo® Luminescent Cell Viability Assay (Promega) that determines the number of viable cells in culture, based on quantitation of the ATP present that is an indicator of metabolically active cells.
# After dispensing test compounds to the wells, cells in the incubation buffer were added to the wells and incubated for 20 minutes. At the end of incubation, CellTiter-Glo was added to each well to measure luminescence.
# [1] = Stability in rat plasma in vitro; assay type: in vitro ADME
# Protocol: SST-Albumin fusion proteins may have a longer serum half-life and/or more stabilized activity in solution or in a pharmaceutical composition in vitro and/or in vivo compared to the corresponding unfused SST molecules. In rat plasma, for example, more than 90% of SST fusion protein was detected until 40 minutes of incubation, and more than 70% of SST fusion proteins remained up to at least 180 min. Under the same conditions, less than about 50% of free SST remained after 40 minute incubation, and no free SST was detected beyond 120 minutes. […] Thus, it would take about 72 hours for the concentration of SST fusion protein to reach zero concentration in plasma.
# The stability of free SST and SST fusion protein was compared in in vitro rat plasma.
# [2] = biological target: sst2a receptor expressed on CHO-K1 cells (UniProt P30874); experiment: cell-based or functional assay
# Chain of UniProt P30874 (P30874 whole entry): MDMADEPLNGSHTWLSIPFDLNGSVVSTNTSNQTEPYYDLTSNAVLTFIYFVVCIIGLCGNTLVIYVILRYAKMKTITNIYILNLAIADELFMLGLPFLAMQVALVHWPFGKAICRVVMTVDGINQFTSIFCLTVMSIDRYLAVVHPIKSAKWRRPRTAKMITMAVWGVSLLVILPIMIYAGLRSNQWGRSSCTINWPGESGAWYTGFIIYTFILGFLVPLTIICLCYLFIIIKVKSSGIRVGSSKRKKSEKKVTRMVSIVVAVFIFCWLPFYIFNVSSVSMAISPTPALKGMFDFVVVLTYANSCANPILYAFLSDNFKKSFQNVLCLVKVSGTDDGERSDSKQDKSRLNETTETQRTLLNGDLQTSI
# [3] = cited from earlier work
compound,measurement,setting,value
C[C@@H]1CC[C@@]2(OC1)O[C@H]1[C@@H](O)[C@H]3[C@@H]4CC[C@H]5C[C@@H](O[C@@H]6O[C@H](CO)[C@H](O[C@@H]7O[C@H](CO)[C@@H](O)[C@H](O[C@@H]8OC[C@@H](O)[C@H](O)[C@H]8O)[C@H]7O[C@@H]7O[C@H](CO)[C@H](O)[C@H](O[C@@H]8O[C@H](CO)[C@@H](O)[C@H](O)[C@H]8O)[C@H]7O)[C@H](O)[C@H]6O)[C@H](O)C[C@]5(C)[C@H]4CC[C@]3(C)[C@H]1[C@@H]2C [Digitonin],"cytotoxicity at 20 min, 20 mg/ml",in vitro,100%
C[C@@H](O)[C@@H]1NC(=O)[C@H](CCCCN)NC(=O)[C@@H](Cc2c[nH]c3ccccc23)NC(=O)[C@H](Cc2ccccc2)NC(=O)[C@@H](NC(=O)[C@H](N)Cc2ccccc2)CSSC[C@@H](C(=O)N[C@H](CO)[C@@H](C)O)NC1=O [Octreotide],"cytotoxicity at 20 minutes, 0.01 µM","in vitro; Test 2, 10 nM",8%
same,"cytotoxicity at 20 minutes, 0.01 µM","in vitro; test 1, 10 nM",-4%
"C[C@H](N)C(=O)NCC(=O)N[C@H]1CSSC[C@@H](C(=O)O)NC(=O)[C@H](CO)NC(=O)[C@H]([C@@H](C)O)NC(=O)[C@H](Cc2ccccc2)NC(=O)[C@H]([C@@H](C)O)NC(=O)[C@H](CCCCN)NC(=O)[C@H](Cc2c[nH]c3ccccc23)NC(=O)[C@H](Cc2ccccc2)NC(=O)[C@H](Cc2ccccc2)NC(=O)[C@H](CC(N)=O)NC(=O)[C@H](CCCCN)NC1=O [free SST, somatostatin]",time up to which detected in rat plasma (not detected beyond),[1]; rat plasma incubation,≤ 120 min
same,remaining at 40 min,"[1]; rat plasma, 40 minutes of incubation, read-out: fraction detected/remaining in rat plasma",< 50%
Octreotide (peptide),"EC50 (adenylyl cyclase assay, CHO-K1 cells expressing sst2a receptor)",[2],0.039 nM
insulin-like growth factor-I [IGF-1],half-life,[3],10 to 20 min
